Assays:
Experiment in all cases: Cell proliferation assay (CellTiter-Glo, 72 hours)
BaF3 KIF5B-RET_V804M = biological target: T1, BaF3 KIF5B-RET_V804M (Homo sapiens, UniProt P07949, V804M, cells depend on it); assay type: cell-based; conditions: anti-cell proliferation, read-out: BaF3 KIF5B-RET_V804M IC50
T1 construct: fused on or other part: P33176 (Kinesin-1 heavy chain)
Excerpt: (§1) The KIF5B-RET gene was synthesized at GenScript and cloned into pCDH-CMV-MCS-EF1-Puro plasmid (System Biosciences, Inc). KIF5B-RET point mutation V804M was generated at GenScript by PCR and confirmed by sequencing. Ba/F3-KIF5B-RET wild type and mutant were generated by transducing Ba/F3 cells with lentivirus containing KIF5B-RET wide type or mutant. Stable cell lines were selected by puromycin treatment, followed by IL-3 withdrawal. Briefly, 5×10^6 Ba/F3 cells were transduced with lentivirus supernatant in the presence of 8 μg/mL protamine sulfate. The transduced cells were subsequently selected with 1 µg/mL puromycin in the presence of IL3-containing medium RPMI1640, plus 10% FBS. After 10-12 days of selection, the surviving cells were further selected for IL3 independent growth.
(§2) Two thousand cells per well were seeded in 384 well white plate for 24 hrs, and then treated with compounds for 72 hours (37° C., 5% CO2). Cell proliferation was measured using CellTiter-Glo luciferase-based ATP detection assay (Promega) following the manufactures's protocol. IC50 determinations were performed using GraphPad Prism software (GraphPad, Inc., San Diego, Calif.).

BaF3 KIF5B-RET = biological target: T2, BaF3 KIF5B-RET (Homo sapiens, UniProt P07949); assay type: cell-based; conditions: anti-cell proliferation, read-out: BaF3 KIF5B-RET IC50
T2 construct: fused on or other part: P33176 (Kinesin-1 heavy chain)
T2 sequence (P07949 whole entry, change not shown, the tested form may be a part): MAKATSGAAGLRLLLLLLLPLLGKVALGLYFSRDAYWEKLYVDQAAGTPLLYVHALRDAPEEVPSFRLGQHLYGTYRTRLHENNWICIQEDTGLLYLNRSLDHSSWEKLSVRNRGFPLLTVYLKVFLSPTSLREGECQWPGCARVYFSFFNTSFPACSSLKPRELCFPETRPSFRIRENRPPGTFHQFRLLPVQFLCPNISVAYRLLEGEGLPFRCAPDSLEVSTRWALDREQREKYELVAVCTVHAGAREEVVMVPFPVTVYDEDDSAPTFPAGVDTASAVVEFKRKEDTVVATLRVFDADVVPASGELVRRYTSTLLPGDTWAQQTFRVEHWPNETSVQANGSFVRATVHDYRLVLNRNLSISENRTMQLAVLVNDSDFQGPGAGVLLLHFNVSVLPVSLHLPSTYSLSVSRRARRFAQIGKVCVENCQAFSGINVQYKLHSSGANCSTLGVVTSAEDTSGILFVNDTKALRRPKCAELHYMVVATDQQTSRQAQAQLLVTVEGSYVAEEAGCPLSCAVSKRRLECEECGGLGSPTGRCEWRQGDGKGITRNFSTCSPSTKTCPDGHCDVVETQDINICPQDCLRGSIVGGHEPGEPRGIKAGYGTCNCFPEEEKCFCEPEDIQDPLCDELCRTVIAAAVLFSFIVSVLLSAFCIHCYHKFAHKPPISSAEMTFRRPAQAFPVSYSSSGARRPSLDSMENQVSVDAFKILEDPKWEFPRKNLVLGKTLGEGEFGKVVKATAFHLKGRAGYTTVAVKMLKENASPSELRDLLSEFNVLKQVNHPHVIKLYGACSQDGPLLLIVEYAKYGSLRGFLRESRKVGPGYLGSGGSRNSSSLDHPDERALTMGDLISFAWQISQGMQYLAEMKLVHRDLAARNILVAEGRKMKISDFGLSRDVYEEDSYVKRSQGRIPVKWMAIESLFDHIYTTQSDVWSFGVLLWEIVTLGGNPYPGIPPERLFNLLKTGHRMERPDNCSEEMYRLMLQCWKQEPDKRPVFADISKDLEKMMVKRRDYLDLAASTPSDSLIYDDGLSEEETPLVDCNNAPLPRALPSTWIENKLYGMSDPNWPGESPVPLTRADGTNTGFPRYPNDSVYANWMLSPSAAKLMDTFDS
Excerpt: as §1, §2

BaF3 KIF5B-RET_G810R = biological target: T3, BaF3 KIF5B-RET_G810R (Homo sapiens, UniProt P07949, G810R, cells depend on it); assay type: cell-based; conditions: anti-cell proliferation, read-out: BaF3 KIF5B-RET_G810R IC50
T3 construct: fused on or other part: P33176 (Kinesin-1 heavy chain)
T3 sequence (P07949 whole entry G810R, the tested form may be a part): as the sequence (P07949 whole entry, change not shown, the tested form may be a part) above, with G810R counted along it
Excerpt: [The source words this procedure for another variant and reports this variant under the same test.] as §1, §2

BaF3 EML4-ALK = biological target: T4, BaF3 EML4-ALK (Homo sapiens, UniProt Q9UM73); assay type: cell-based; conditions: anti-cell proliferation
T4 construct: The EML4-ALK gene (variant 1) was synthesized at GenScript and cloned into pCDH-CMV-MCS-EF1-Puro plasmid (System Biosciences, Inc); fused on or other part: Q9HC35 (Echinoderm microtubule-associated protein-like 4)
T4 sequence (Q9UM73 whole entry, change not shown, the tested form may be a part): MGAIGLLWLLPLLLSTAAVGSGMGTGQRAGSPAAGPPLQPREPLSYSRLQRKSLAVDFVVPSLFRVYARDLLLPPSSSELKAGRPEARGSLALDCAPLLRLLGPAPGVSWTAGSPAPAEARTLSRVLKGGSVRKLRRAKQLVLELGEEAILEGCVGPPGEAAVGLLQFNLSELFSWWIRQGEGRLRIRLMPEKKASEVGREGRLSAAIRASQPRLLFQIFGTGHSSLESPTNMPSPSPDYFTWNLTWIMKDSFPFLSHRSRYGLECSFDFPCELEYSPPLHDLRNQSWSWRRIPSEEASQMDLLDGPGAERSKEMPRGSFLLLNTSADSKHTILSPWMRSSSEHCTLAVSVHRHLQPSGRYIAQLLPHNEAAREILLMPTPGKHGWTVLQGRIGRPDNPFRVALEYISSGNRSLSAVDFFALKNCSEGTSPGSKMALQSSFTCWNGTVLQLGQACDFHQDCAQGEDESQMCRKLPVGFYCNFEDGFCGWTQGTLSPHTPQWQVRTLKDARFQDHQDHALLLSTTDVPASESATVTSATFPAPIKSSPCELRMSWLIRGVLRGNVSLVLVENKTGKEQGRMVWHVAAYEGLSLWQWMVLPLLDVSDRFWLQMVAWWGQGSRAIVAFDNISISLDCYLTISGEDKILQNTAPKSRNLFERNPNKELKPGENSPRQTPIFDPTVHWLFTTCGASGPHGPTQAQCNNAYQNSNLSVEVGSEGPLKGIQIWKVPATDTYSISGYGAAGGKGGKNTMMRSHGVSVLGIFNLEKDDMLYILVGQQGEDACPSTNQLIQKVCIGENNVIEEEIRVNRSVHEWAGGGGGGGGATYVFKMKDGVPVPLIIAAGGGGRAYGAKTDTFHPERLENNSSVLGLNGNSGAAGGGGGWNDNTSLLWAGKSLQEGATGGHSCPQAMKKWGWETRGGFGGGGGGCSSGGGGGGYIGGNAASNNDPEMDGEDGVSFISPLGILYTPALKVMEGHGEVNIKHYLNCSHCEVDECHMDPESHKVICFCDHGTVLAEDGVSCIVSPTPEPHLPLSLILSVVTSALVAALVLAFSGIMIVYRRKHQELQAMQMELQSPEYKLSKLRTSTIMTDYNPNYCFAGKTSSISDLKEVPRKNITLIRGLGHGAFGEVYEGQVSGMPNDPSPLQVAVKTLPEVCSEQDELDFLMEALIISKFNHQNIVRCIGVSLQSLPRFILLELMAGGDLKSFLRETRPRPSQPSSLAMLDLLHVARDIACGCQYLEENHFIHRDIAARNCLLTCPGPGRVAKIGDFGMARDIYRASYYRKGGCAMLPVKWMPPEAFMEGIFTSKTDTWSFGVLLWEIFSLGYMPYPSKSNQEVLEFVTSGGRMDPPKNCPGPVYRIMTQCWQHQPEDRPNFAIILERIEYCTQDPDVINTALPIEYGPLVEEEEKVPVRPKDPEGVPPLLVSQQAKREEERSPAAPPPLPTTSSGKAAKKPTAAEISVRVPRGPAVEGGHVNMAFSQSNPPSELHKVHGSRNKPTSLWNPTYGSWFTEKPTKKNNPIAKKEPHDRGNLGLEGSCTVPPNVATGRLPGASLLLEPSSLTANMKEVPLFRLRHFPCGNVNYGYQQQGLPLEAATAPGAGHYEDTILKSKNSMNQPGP
Method: The EML4-ALK gene (variant 1) was synthesized at GenScript and cloned into pCDH-CMV-MCS-EF1-Puro plasmid (System Biosciences, Inc). Ba/F3-EML4-ALK wild type were generated by transducing Ba/F3 cells with lentivirus containing EML4-ALK wide type. Stable cell lines were selected by puromycin treatment, followed by IL-3 withdrawal. Briefly, 5×10^6 Ba/F3 cells were transduced with lentivirus supernatant in the presence of 8 μg/mL protamine sulfate. The transduced cells were subsequently selected with 1 μg/mL puromycin in the presence of IL3-containing medium RPMI1640, plus 10% FBS. After 10-12 days of selection, the surviving cells were further selected for IL3 independent growth.
as §2

KG-1 = assay type: cell-based, human; conditions: Homo sapiens, KG-1, anti-cell proliferation
Method: (§3) Human medulla thyroid carcinoma cell line TT (containing RET […] mutation) and acute myelogenous cell line KG-1 were purchased from ATCC. Human colon cancer cell line KMI2 (containing TPM3-TRKA) was obtained from NCI.
as §2

KM12 cell (TPM3-TRKA) = assay type: cell-based, human; conditions: Homo sapiens, KM12, anti-cell proliferation
Method: as §3, §2

T1 sequence (P07949 whole entry V804M, the tested form may be a part): as the sequence (P07949 whole entry, change not shown, the tested form may be a part) above, with V804M counted along it

| GI50 (BaF3 KIF5B-RET_V804M) [nM] | GI50 (BaF3 KIF5B-RET) [nM] | GI50 (BaF3 KIF5B-RET_G810R) [nM] | GI50 (BaF3 EML4-ALK) [nM] | Structure (SMILES) | IC50 (KG-1) [nM] | IC50 (KM12 cell (TPM3-TRKA)) [nM] |
| --- | --- | --- | --- | --- | --- | --- |
| 573 | 0.2 | 3 | 146 | C[C@@H]1COc2ncc(F)cc2CN2c3nc4c(cnn4cc3O[C@H]3CCC[C@H]32)C(=O)N1 [Compound 6, (3aR,12R,20aS)-7-fluoro-12-methyl-2,3,3a,12,13,20a-hexahydro-1H,5H-17-19-(metheno)cyclopenta[5,6][1,4] oxazino[3,4-i]pyrazolo[4,3-f]pyrido[3,2-l][1,4,8,10]oxatriazacyclotridecin-14(11H)-one] | 1 | 0.2 |
| 1930 | 342 | – | 4000 | C[C@H]1CNC(=O)c2cnn3cc4c(nc23)N(Cc2cc(F)cnc2O1)[C@@H]1CC[C@@H]1O4 [Compound 8, (2aR,10S,19aS)-6-fluoro-10-methyl-1,2,2a,11,12,19a-hexahydro-4H-16,18-(metheno)cyclobuta[5,6][1,4] oxazino[3,4-i]pyrazolo[4,3-f]pyrido[3,2-l][1,4,8,10]oxatriazacyclotridecin-13(10H)-one] | 189 | 0.3 |
| > 10000 | 2360 | – | 8000 | C[C@H]1CNC(=O)c2cnn3cc4c(nc23)N(Cc2cc(F)cnc2O1)[C@H]1CC[C@H]1O4 [Compound 9, (2aS,10S,19aR)-6-fluoro-10-methyl-1,2,2a,11,12,19a-hexahydro-4H-16,18-(metheno)cyclobuta[5,6][1,4] oxazino[3,4-i]pyrazolo[4,3-f]pyrido[3,2-l][1,4,8,10]oxatriazacyclotridecin-13(10H)-one] | 1000 | 3.3 |
| 1210 | 274 | – | 4000 | C[C@@H]1COc2ncc(F)cc2CN2c3nc4c(cnn4cc3O[C@H]3CC[C@H]32)C(=O)N1 [Compound 10, (2aR,11R,19aS)-6-fluoro-11-methyl-1,2,2a,11,12,19a-hexahydro-4H-16,18-(metheno)cyclobuta[5,6][1,4] oxazino[3,4-i]pyrazolo[4,3-f]pyrido[3,2-l][1,4,8,10]oxatriazacyclotridecin-13(10H)-one] | 78.3 | 0.2 |
| 3000 | 839 | – | – | C[C@@H]1COc2ncc(F)cc2CN2c3nc4c(cnn4cc3O[C@@H]3CC[C@@H]32)C(=O)N1 [Compound 11, (2aS,11R,19aR)-6-fluoro-11-methyl-1,2,2a,11,12,19a-hexahydro-4H-16,18-(metheno)cyclobuta[5,6][1,4] oxazino[3,4-i]pyrazolo[4,3-f]pyrido[3,2-l][1,4,8,10]oxatriazacyclotridecin-13(10H)-one] | 307 | 0.4 |
| – | 120 | 530 | 908 | O=C1N[C@H](C2CC2)COc2ncc(F)cc2CN2c3nc4c1cnn4cc3O[C@H]1CCC[C@H]12 [Compound 14, (3aR,12R,20aS)-12-cyclopropyl-7-fluoro-2,3,3a,12,13,20a-hexahydro-1H,5H-17-19-(metheno)cyclopenta[5,6][1,4] oxazino[4,3-i]pyrazolo[4,3-f]pyrido[3,2-l][1,4,8,10]oxatriazacyclotridecin-14(11H)-one] | 273 | 26.6 |
| > 10000 | 4000 | > 10000 | – | C[C@H]1CNC(=O)c2cnn3cc4c(nc23)N(Cc2cc(F)cnc2O1)[C@H]1COC[C@H]1O4 [Compound 31, (3aS,11S,20aS)-7-fluoro-11-methyl-1,3,3a,12,13,20a-hexahydro-5H-17,19-(metheno)furo[3′,4′:5,6][1,4]oxazino[3,4-i]pyrazolo[4,3-f]pyrido[3,2-l][1,4,8,10]oxatriazacyclotridecin-14(11H)-one] | 10000 | 365 |
| – | 62.2 | 651 | 1000 | CC1(C)CCOc2ncc(F)cc2CN2c3nc4c(cnn4cc3O[C@H]3CCC[C@H]32)C(=O)N1 [Compound 34, (3aR,21aS)-7-fluoro-13,13-dimethyl-2,3,3a,11,12,13,14,21a-octahydro-1H,5H,15H-18,20-(metheno)cyclopenta[5,6][1,4]oxazino[4,3-e]pyrazolo[3,4-h]pyrido[2,3-b][1,5,7,11]oxatriazacyclotetradecin-15-one] | 408 | 50 |
| – | 8.8 | – | 1100 | C[C@@H]1CCNC(=O)c2cnn3cc4c(nc23)N(Cc2cc(F)cnc2O1)[C@@H]1CCC[C@@H]1O4 [Compound 35, (3aR,11R,21aS)-7-fluoro-11-methyl-2,3,3a,11,12,13,14,21a-octahydro-1H,5H,15H-18,20-(metheno)cyclopenta[5,6][1,4]oxazino[4,3-e]pyrazolo[3,4-h]pyrido[2,3-b][1,5,7,11]oxatriazacyclotetradecin-15-one] | 55.7 | < 0.2 |
| – | 8000 | – | > 10000 | CC(=O)N1C[C@@H]2Oc3cn4ncc5c4nc3N(Cc3cc(F)cnc3O[C@@H](C)CNC5=O)[C@@H]2C1 [Compound 36, (3aR,11S,20aS)-2-acetyl-7-fluoro-11-methyl-2,3,3a,12,13,20a-hexahydro-1H, 5H-17,19-(metheno)pyrazolo[4,3-f]pyrido [3,2-l]pyrrolo[3′,4′:5,6][1,4]oxazino[3,4-i][1,4,8,10]oxatriazacyclotridecin-14(11H)-one] | 10000 | 1000 |
| – | 8000 | – | > 10000 | CC(=O)N1C[C@H]2Oc3cn4ncc5c4nc3N(Cc3cc(F)cnc3O[C@@H](C)CNC5=O)[C@H]2C1 [Compound 37, (3aS,11S,20aR)-2-acetyl-7-fluoro-11-methyl-2,3,3a,12,13,20a-hexahydro-1H, 5H-17,19-(metheno)pyrazolo[4,3-f]pyrido [3,2-l]pyrrolo[3′,4′:5,6][1,4]oxazino[3,4-i][1,4,8,10]oxatriazacyclotridecin-14(11H)-one] | 3000 | 1200 |
| – | 5.1 | 156 | 1450 | O=C1N[C@H]2CC[C@H](C2)Oc2ncc(F)cc2CN2c3nc4c1cnn4cc3O[C@H]1CCC[C@H]12 [Compound 41, (3aR,11R,14S,22aS)-7-fluoro-2,3,3a,12,13,14,15,22a-octahydro-1H, 5H-11,14-metheno-19,21-(metheno)cyclopenta[5,6][1,4] oxazino[4,3-e]pyrazolo[3,4-h]pyrido[2,3-b][1,5,7,11]oxatriazacyclopentadecin-16(11H)-one] | 389 | 431 |
| – | 0.5 | 17.4 | 338 | O=C1N[C@@H]2CC[C@@H](C2)Oc2ncc(F)cc2CN2c3nc4c1cnn4cc3O[C@H]1CCC[C@H]12 [Compound 42, (3aR,11S,14R,22aS)-7-fluoro-2,3,3a,12,13,14,15,22a-octahydro-1H, 5H-11,14-metheno-19,21-(metheno)cyclopenta[5,6][1,4] oxazino[4,3-e]pyrazolo[3,4-h]pyrido[2,3-b][1,5,7,11]oxatriazacyclopentadecin-16(11H)-one] | 41 | 9.8 |
| – | 68.9 | 396 | 2990 | O=C1NC[C@@H](O)COc2ncc(F)cc2CN2c3nc4c1cnn4cc3O[C@H]1CCC[C@H]12 [Compound 43, (3aR,12R,21aS)-7-fluoro-12-hydroxy-2,3,3a,11,12,13,14,21a-octahydro-1H, 5H,15H-18,20-(metheno)cyclopenta[5,6][1,4] oxazino[4,3-e]pyrazolo[3,4-h]pyrido[2,3-b][1,5,7,11]oxatriazacyclotetradecin-15-one] | 359 | 109 |

— patent publication US10745416B2, “Macrocyclic compounds for treating disease” (Turning Point Therapeutics, Inc., priority 2017, dated 2020)
